Tests used:
[1] = tested on: NB4 cells; experiment: MTS assay, growth inhibition in NB4 cells; type: cell-based; details: after 3 days (FIG. 2(i) legend: 4 day), absorbance 490 nm relative to untreated cells
Protocol: HL60 or NB4 cells were diluted in complete growth medium and plated at a density of 5000 cells per 0.1 ml in wells of a 96 well plate. Cells were then treated with various concentrations of the compound of Example 7 (MI-192) or were left untreated as a control in a total volume of 0.2 ml of complete growth medium. After 3 days, relative cell numbers were determined using the MTS assay, as described by the manufacturer (Promega, Southampton, UK). The results shown in FIG. 2(i) are absorbance (490 nm) relative to control cells (untreated cells 100%).

Row | melting point | Structure (SMILES) | growth inhibition (MTS assay) [1]
1 | > 230 °C | C=C1CN(Cc2ccc(C(=O)Nc3ccccc3N)cc2)C(CC(=O)O)c2ccccc21 (centres unmarked) [Example 9, [2-(4-{[(2-Aminophenyl)amino]carbonyl}benzyl)-4-methylene-1,2,3,4-tetra hydroisoquinolin-1-yl]acetic acid] | 
2 |  | C=C1CN(Cc2ccc(C(=O)Nc3ccccc3N)cc2)C(=O)c2ccccc21 [Example 7, N-(2-Aminophenyl)-4-[(4-methylene-1-oxo-3,4-dihydroisoquino-2(1H)-yl)methyl]benzamide] | promotes growth inhibition

Reference: patent US20140135327A1, “N- (2 -AMINOPHENYL) BENZAMIDE DERIVATIVES AS HISTONE DEACETYLASE INHIBITORS” (CANCER RESEARCH TECHNOLOGY LIMITED, priority 2011, published 2014)
